Publication PMC12584752, “Covalent fragment screening to inhibit the E3 ligase activity of bacterial NEL enzymes SspH1 and SspH2” (RSC Chemical Biology, 2025)

Molecular target: SspH1 (161–700) (Salmonella typhimurium, UniProt D0ZVG2)
Experiment: Round 1 intact protein LC-MS covalent fragment labelling screen and dilution series
Assay type: binding
Set-up: Recombinant IpaH9.8 (21–545) and SspH1 (161–700) were incubated at 0.5 μM; His-tag (N, cleaved yes); made in house; host or cells: E. coli BL21
Conditions: round 1 screen; 0.5 μM SspH1, 50 μM fragments, 24 hours at 4 °C
Procedure: A diverse library of 227 compounds with chloroacetamide warheads, featuring a diversity of molecular weight (162–321 Da) and clog P (−1.4 to 3.4) (Table S1), were screened against Salmonella and Shigella NEL E3 ligases using our intact protein liquid chromatography mass spectrometry (LC-MS) platform as previously described.[39,40] Briefly, recombinant SspH1 (161–700[30]) and IpaH9.8 (21–545[29]) (Fig. 1A and B) were incubated with 50 μM fragments for 24 hours at 4 °C before analysis by LC-MS (Fig. 1C). Raw counts were deconvoluted and the labelling percentage calculated by detection and comparison of protein and protein-fragment molecular weights.
Fig. 1 Intact protein LCMS screening of covalent fragment library against NEL proteins. (A) Cartoon depicting conserved NEL E3 ligase domains; (B) overlaid structures of SspH1 (blue, PDB 9H6W[30]) and IpaH9.8 (green, PDB 6LOL[29]) aligned on NEL domain; (C) workflow of covalent fragment screening using intact LC-MS; (D) fragment labelling percentages for SspH1 and IpaH9.8 with fragments 1–3 highlighted. Recombinant IpaH9.8 (21–545) and SspH1 (161–700) were incubated at 0.5 μM with 50 μM fragments for 24 hours at 4 °C, before fragment labelling was analysed by intact LC-MS; (E) chemical structures of fragments 1–3.
We next analysed the potency of compounds 4–10 against SspH1. The seven compounds were obtained as purified compounds (Table S2) and screened against SspH1 by intact LC-MS (Fig. 3A) with two-fold serial dilution (100–6.25 μM). To confirm which of the two cysteines in the SspH1 161–700 construct were labelled, we repeated the concentration response experiment with a catalytic cysteine mutant of SspH1 (C492K) (Fig. 3B). The complete abrogation of labelling confirmed that all […] compounds labelled the catalytic cysteine of SspH1.
1 μM IpaH9.8 or SspH1 were incubated with […] fragments for 24 hours at 4 °C, in 25 mM HEPES pH 7.5, 50 mM NaCl buffer. Intact protein LC-MS was performed as previously described.[40] The following deconvolution conditions were used for recombinant proteins studied in this work:
Dilution series experiments were performed as for 1st round screening. 1 μM OTUD4, OTUD5 or 0.5 μM HOIL, UbcH5A, SspH2, SspH1 C492K were incubated with 100–6.25 μM compounds for 24 hours at 4 °C, in 25 mM HEPES pH 7.5, 50 mM NaCl buffer. Intact protein LC-MS was performed as previously described.[40] The following deconvolution conditions were used for recombinant proteins studied in this work: […]

SspH1 (161–700), sequence (D0ZVG2 161-700): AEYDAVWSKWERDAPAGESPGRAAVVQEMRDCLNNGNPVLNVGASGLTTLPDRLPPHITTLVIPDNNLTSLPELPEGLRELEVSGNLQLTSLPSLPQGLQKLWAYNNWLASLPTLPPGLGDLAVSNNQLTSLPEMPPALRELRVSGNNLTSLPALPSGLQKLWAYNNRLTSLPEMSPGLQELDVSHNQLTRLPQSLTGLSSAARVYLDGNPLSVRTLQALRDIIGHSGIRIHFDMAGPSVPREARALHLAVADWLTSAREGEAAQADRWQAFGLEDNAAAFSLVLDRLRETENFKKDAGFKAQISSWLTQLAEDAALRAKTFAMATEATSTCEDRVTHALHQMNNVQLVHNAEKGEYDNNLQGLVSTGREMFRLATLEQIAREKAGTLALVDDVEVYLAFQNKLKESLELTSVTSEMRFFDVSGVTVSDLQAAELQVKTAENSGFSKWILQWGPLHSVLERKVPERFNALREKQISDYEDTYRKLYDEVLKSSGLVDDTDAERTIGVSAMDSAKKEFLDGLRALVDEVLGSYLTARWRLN

Row | SMILES | protein labelling percentage
1 | O=C(CCl)N1CCCN(C(=O)c2ccc(Cl)cc2)CC1 [fragment 1] | greater than 30%
2 | Cl.O=C(CCl)N1CCC(n2nc3ccccc3n2)CC1 [fragment 2] | greater than 30%
3 | Cc1cccn2cc(CCNC(=O)CCl)nc12.Cl [fragment 3] | greater than 30%
